The test system of series [1] is Influenza A virus. Nature of the series: Antiviral activity against Amantadine -resistant Influenza A virus (A/Washington/29/2009 (H1N1)) infected in MDCK cells overexpressing ST6Gal I assessed as inhibition of viral replication by plaque assay. Format: functional, organism-based.
In series [2] the test system is Influenza A virus. Nature of the series: Antiviral activity against Oseltamivir-resistant Influenza A virus (A/North Carolina/39/2009 (H1N1)) infected in MDCK cells over expressing ST6Gal I assessed as inhibition of viral replication by plaque assay. Format: functional, organism-based.
The test system of series [3] is Influenza A virus. Nature of the series: Antiviral activity against Amantadine-resistant Influenza A virus (A/WSN/1933 (H1N1)) infected in MDCK cells over expressing ST6Gal I assessed as inhibition of viral replication by plaque assay. Format: functional, organism-based.
Series [4] can be described thus: Selectivity index, ratio of CC50 for MDCK cells to EC50 for Amantadine-resistant Influenza A virus (A/Washington/29/2009 (H1N1)) infected in MDCK cells. The series is classed as toxicity, cell-based. As to conditions: dog, read-out: Ratio CC50/EC50.
Series [5] can be described thus: Selectivity index, ratio of CC50 for MDCK cells to EC50 for Amantadine-resistant Influenza A virus (A/WSN/1933 (H1N1)) infected in MDCK cells. As to conditions: dog, read-out: Ratio CC50/EC50. Format: toxicity, cell-based.

The structures appear in SMILES notation.

As a reminder, the EC50 is the concentration at which the effect is half-maximal. Regarding `Cc1cc(OCc2nnc(SC3CCCC3)n2-c2cccnc2)ccc1-c1ccc(S(C)(=O)=O)cc1`, the 50% effective concentration (EC50) with Influenza A virus [1], in the series on Influenza A virus [2] and in the series on Influenza A virus [3] was 30 nM throughout. In addition, the selectivity ratio in series [4] and in series [5] was 50 in each case.

These data come from ChEMBL document CHEMBL5096176, “AAA ATPases as therapeutic targets: Structure, functions, and small-molecule inhibitors” (Eur J Med Chem, 2021).
